Source: US11802120B2, “Fused cyclic urea derivatives as CRHR2 antagonist” (RaQualia Pharma Inc., priority 2018, dated 2023)

target: T1, human CRHR2-alpha (Homo sapiens, UniProt Q13324); test: cAMP functional assay for human CRHR2 (LANCE Ultra cAMP, TR-FRET); assay type: cell-based; conditions: CHO-K1 cells expressing human CRHR2-alpha, agonist human urocortin2 at EC80, cAMP; read-out: IC50 against CRHR2
T1 sequence (Q13324 1-411): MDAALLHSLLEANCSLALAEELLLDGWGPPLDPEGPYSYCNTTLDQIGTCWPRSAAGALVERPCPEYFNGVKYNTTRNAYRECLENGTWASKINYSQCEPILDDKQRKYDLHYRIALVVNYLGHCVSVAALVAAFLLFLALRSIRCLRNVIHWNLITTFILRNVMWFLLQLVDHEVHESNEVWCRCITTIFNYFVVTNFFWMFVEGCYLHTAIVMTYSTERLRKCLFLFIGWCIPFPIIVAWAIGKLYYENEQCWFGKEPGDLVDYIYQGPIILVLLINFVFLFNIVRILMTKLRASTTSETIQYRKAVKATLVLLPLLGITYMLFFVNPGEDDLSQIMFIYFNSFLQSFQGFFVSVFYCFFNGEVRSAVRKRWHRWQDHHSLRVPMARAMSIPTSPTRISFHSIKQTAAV
Summary of the method: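 CHO-K1 stable lines; 4,000 cells/well; compound 30 min, 25° C; EC80 agonist (human urocortin2 → CRHR2, CRF → CRHR1) 30 min, 25° C; buffer HBSS/0.1% BSA/0.5 mM IBMX/5 mM Hepes pH 7.4; Eu-cAMP tracer + ULight antibody 60 min; TR-FRET read; IC50 from % inhibition curves.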

IC50, < 300 nM:
CNc1ccc(-n2c(=O)n(C[C@H]3CC[C@H](NC(=O)c4cc(Cl)cnc4C)CC3)c3ccccc32)c(C)n1 [Example 150, 5-chloro-2-methyl-N-((1r,4r)-4-((3-(2-methyl-6-(methylamino)pyridin-3-yl)-2-oxo-2,3-dihydro-1H-benzo[d]imidazol-1-yl)methyl)cyclohexyl)nicotinamide]
O=C(N[C@H]1CC[C@H](Cn2c(=O)n(-c3ccc(OCCO)nc3)c3ccc(F)cc32)CC1)c1cc(Cl)cnc1C(F)F [Example 712, 5-chloro-2-(difluoromethyl)-N-((1r,4r)-4-((6-fluoro-3-(6-(2-hydroxyethoxy)pyridin-3-yl)-2-oxo-2,3-dihydro-1H-benzo[d]imidazol-1-yl)methyl)cyclohexyl)nicotinamide]
Cc1ncc(Cl)cc1C(=O)N[C@H]1CC[C@H](Cn2c(=O)n(-c3ccc4ncsc4c3)c3ncccc32)CC1 [Example 200, N-((1r,4r)-4-((3-(benzo[d]thiazol-6-yl)-2-oxo-2,3-dihydro-1H-imidazo[4,5-b]pyridin-1-yl)methyl)cyclohexyl)-5-chloro-2-methylnicotinamide]
Cc1ncc(Cl)cc1C(=O)N[C@H]1CC[C@H](Cn2c(=O)n(-c3cncc(N(C)C)c3)c3ccccc32)CC1 [Example 483, 5-chloro-N-((1r,4r)-4-((3-(5-(dimethylamino)pyridin-3-yl)-2-oxo-2,3-dihydro-1H-benzo [d]imidazol-1-yl)methyl)cyclo-hexyl)-2-methylnicotinamide]
COCc1ncc(Cl)cc1C(=O)N[C@H]1CC[C@H](Cn2c(=O)n(-c3ccc(C)nc3)c3ccccc32)CC1 [Example 329, 5-chloro-2-(methoxymethyl)-N-((1r,4r)-4-((3-(6-methyl-pyridin-3-yl)-2-oxo-2,3-dihydro-1H-benzo[d]imidazol-1-yl)methyl)cyclohexyl) nicotinamide]
Cc1ncc(Cl)cc1C(=O)N[C@H]1CC[C@H](Cn2c(=O)n(-c3ccc(-c4ncco4)cc3)c3ccccc32)CC1 [Example 451, 5-chloro-2-methyl-N-((1r,4r)-4-((3-(4-(oxazol-2-yl)phenyl)-2-oxo-2,3-dihydro-1H-benzo [d]imidazol-1-yl)methyl)cyclo-hexyl)nicotinamide]
N#Cc1ncccc1-n1c(=O)n(C[C@H]2CC[C@H](NC(=O)c3cc(Cl)cnc3C(F)F)CC2)c2ccccc21 [Example 368, 5-chloro-N-((1r,4r)-4-((3-(2-cyanopyridin-3-yl)-2-oxo-2,3-dihydro-1H-benzo[d]imidazol-1-yl)methyl)cyclo-hexyl)-2-(difluoromethyl) nicotinamide]
COCCOc1cncc(-n2c(=O)n(C[C@H]3CC[C@H](NC(=O)c4cc(Cl)cnc4C)CC3)c3ccccc32)c1 [Example 486, 5-chloro-N-((1r,4r)-4-((3-(5-(2-methoxyethoxy)pyridin-3-yl)-2-oxo-2,3-dihydro-1H-benzo[d]imidazol-1-yl)methyl)cyclo-hexyl)-2-methylnicotinamide]
CNC(=O)c1ccc(-n2c(=O)n(C[C@H]3CC[C@H](NC(=O)c4cc(Cl)ccc4OC(F)(F)F)CC3)c3ccccc32)cn1 [Example 531, 5-(3-(((1r,4r)-4-(5-chloro-2-(trifluoromethoxy)benzamido)cyclohexyl)methyl)-2-oxo-2,3-dihydro-1H-benzo[d]imidazol-1-yl)-N-methyl-picolinamide]
Cc1nc2ncc(-n3c(=O)n(C[C@H]4CC[C@H](NC(=O)c5cc(Cl)cnc5C)CC4)c4ccccc43)cc2o1 [Example 356, 5-chloro-2-methyl-N-((1r,4r)-4-((3-(2-methyloxazolo[4,5-b]pyridin-6-yl)-2-oxo-2,3-dihydro-1H-benzo[d]imidazol-1-yl)methyl)cyclohexyl)nicotinamide]
Cc1c[nH]c2ncc(-n3c(=O)n(C[C@H]4CC[C@H](NC(=O)c5cc(Cl)cnc5C(F)F)CC4)c4cccnc43)cc12 [Example 474, 5-chloro-2-(difluoromethyl)-N-((1r,4r)-4-((3-(3-methyl-1H-pyrrolo[2,3-b]pyridin-5-yl)-2-oxo-2,3-dihydro-1H-imidazo[4,5-b]pyridin-1-yl)methyl)cyclohexyl)nicotinamide]
Cc1ncc(Cl)cc1C(=O)N[C@H]1CC[C@H](Cn2c(=O)n(-c3ccc(-n4cccn4)nc3)c3ccccc32)CC1 [Example 637, N-((1r,4r)-4-((3-(6-(1H-pyrazol-1-yl)pyridin-3-yl)-2-oxo-2,3-dihydro-1H-benzo[d]imidazol-1-yl)methyl)cyclohexyl)-5-chloro-2-methylnicotinamide]
N#Cc1cccnc1-n1c(=O)n(C[C@H]2CC[C@H](NC(=O)c3cc(Cl)cnc3C(F)(F)F)CC2)c2ccccc21 [Example 312, 5-chloro-N-((1r,4r)-4-((3-(3-cyanopyridin-2-yl)-2-oxo-2,3-dihydro-1H-benzo[d]imidazol-1-yl)methyl)cyclo-hexyl)-2-(trifluoromethyl) nicotinamide]
Cn1cc(-c2cncc(-n3c(=O)n(C[C@H]4CC[C@H](NC(=O)c5cc(Cl)cnc5C(F)F)CC4)c4ccccc43)c2)cn1 [Example 682, 5-chloro-2-(difluoromethyl)-N-((1r,4r)-4-((3-(5-(1-methyl-1H-pyrazol-4-yl)pyridin-3-yl)-2-oxo-2,3-dihydro-1H-benzo[d]imidazol-1-yl)methyl)cyclohexyl)nicotinamide]
Cc1cc2cc(-n3c(=O)n(C[C@H]4CC[C@H](NC(=O)c5cc(Cl)cnc5C(F)F)CC4)c4cccnc43)cnc2n1C [Example 708, 5-chloro-2-(difluoromethyl)-N-((1r,4r)-4-((3-(1,2-dimethyl-1H-pyrrolo[2,3-b]pyridin-5-yl)-2-oxo-2,3-dihydro-1H-imidazo[4,5-b]pyridin-1-yl)methyl)cyclohexyl)nicotinamide]
CC(C)(O)C(=O)Nc1ccc(-n2c(=O)n(C[C@H]3CC[C@H](NC(=O)c4cc(Cl)cnc4C(F)F)CC3)c3ccccc32)cn1 [Example 669, 5-chloro-2-(difluoromethyl)-N-((1r,4r)-4-((3-(6-(2-hydroxy-2-methylpropana-mido)pyridin-3-yl)-2-oxo-2,3-dihydro-1H-benzo[d]imidazol-1-yl)methyl)cyclo-hexyl)nicotinamide]
O=C(N[C@H]1CC[C@H](Cn2c(=O)n(-c3ccnc(N4CCCC4=O)c3)c3ccccc32)CC1)c1cc(Cl)cnc1C(F)F [Example 706, 5-chloro-2-(difluoromethyl)-N-((1r,4r)-4-((2-oxo-3-(2-(2-oxopyrrolidin-1-yl)pyridin-4-yl)-2,3-dihydro-1H-benzo[d]imidazol-1-yl)methyl)cyclo-hexyl)nicotinamide]
Cc1ncc(Cl)cc1C(=O)N[C@H]1CC[C@H](Cn2c(=O)n(-c3ccc(-c4ccn(C)n4)nc3)c3ccccc32)CC1 [Example 654, 5-chloro-2-methyl-N-((1r,4r)-4-((3-(6-(1-methyl-1H-pyrazol-3-yl)pyridin-3-yl)-2-oxo-2,3-dihydro-1H-benzo[d]imidazol-1-yl)methyl)cyclohexyl)nico-tinamide]
Cc1ncc(Cl)cc1C(=O)N[C@H]1CC[C@H](Cn2c(=O)n(-c3ccc(-c4cnco4)nc3)c3ccccc32)CC1 [Example 202, 5-chloro-2-methyl-N-((1r,4r)-4-((3-(6-(oxazol-5-yl)pyridin-3-yl)-2-oxo-2,3-dihydro-1H-benzo[d]imidazol-1-yl)methyl)cyclo-hexyl)nicotinamide]
COc1ccc(F)c(-n2c(=O)n(C[C@H]3CC[C@H](NC(=O)c4cc(Cl)cnc4C(F)F)CC3)c3cnccc32)c1 [Example 726, 5-chloro-2-(difluoromethyl)-N-((1r,4r)-4-((1-(2-fluoro-5-methoxyphenyl)-2-oxo-1H-imidazo[4,5-c]pyridin-3(2H)-yl)methyl)cyclohexyl) nicotinamide]
CNc1cnc(-n2c(=O)n(C[C@H]3CC[C@H](NC(=O)c4cc(Cl)cnc4C)CC3)c3ccccc32)cn1 [Example 115, 5-chloro-2-methyl-N-((1r,4r)-4-((3-(5-(methylamino)pyrazin-2-yl)-2-oxo-2,3-dihydro-1H-benzo [d]imidazol-1-yl)methyl)cyclo-hexyl)nicotinamide]
Cc1cc(N2CCNC2=O)ncc1-n1c(=O)n(C[C@H]2CC[C@H](NC(=O)c3cc(Cl)cnc3C(F)F)CC2)c2ccccc21 [Example 558, 5-chloro-2-(difluoromethyl)-N-((1r,4r)-4-((3-(4-methyl-6-(2-oxoimidazolidin-1-yl)pyridin-3-yl)-2-oxo-2,3-dihydro-1H-benzo[d]imidazol-1-yl)methyl)cyclohexyl) nicotinamide]
Cc1ncc(Cl)cc1C(=O)N[C@H]1CC[C@H](Cn2c(=O)n(-c3cnc4c(C)n[nH]c4c3)c3ccccc32)CC1 [Example 172, 5-chloro-2-methyl-N-((1r,4r)-4-((3-(3-methyl-1H-pyrazolo[4,3-b]pyridin-6-yl)-2-oxo-2,3-dihydro-1H-benzo[d]imidazol-1-yl)methyl)cyclohexyl)nicotinamide]
